ChEMBL document CHEMBL1130574, “5-HT1A and 5-HT2A ligands with anxiolytic and antipanic-like properties” (Bioorg Med Chem Lett, 1997)
Active and inactive are the calls of the source. The calls are words filed in the database; no cut-off is given here.

Key:
[1] = biological target: T1, 5-hydroxytryptamine receptor 1A (Rattus norvegicus, UniProt P19327); assay: Binding affinity against 5-hydroxytryptamine 1A receptor of rat hippocampus using [3H]8-OH-DPAT; format: tissue-based
T1 sequence (P19327 whole entry): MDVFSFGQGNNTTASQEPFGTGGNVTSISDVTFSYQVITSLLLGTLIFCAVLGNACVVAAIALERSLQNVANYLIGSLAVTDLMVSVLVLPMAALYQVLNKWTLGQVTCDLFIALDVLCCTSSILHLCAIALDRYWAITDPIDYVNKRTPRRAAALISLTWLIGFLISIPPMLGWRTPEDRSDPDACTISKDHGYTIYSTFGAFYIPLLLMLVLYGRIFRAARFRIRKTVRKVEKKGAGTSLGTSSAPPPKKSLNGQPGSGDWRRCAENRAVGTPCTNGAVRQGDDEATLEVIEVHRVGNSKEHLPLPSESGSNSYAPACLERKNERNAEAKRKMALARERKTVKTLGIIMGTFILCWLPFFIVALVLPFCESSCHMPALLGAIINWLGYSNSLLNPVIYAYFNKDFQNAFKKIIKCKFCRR

[2] = biological target: T2, Adrenergic receptor alpha-1 (Rattus norvegicus, UniProt P15823+P23944+P43140); assay: Binding affinity against Alpha-1 adrenergic receptor in rat cortex using [3H]prazosin; format: tissue-based, Brain
T2 sequence (P15823 whole entry): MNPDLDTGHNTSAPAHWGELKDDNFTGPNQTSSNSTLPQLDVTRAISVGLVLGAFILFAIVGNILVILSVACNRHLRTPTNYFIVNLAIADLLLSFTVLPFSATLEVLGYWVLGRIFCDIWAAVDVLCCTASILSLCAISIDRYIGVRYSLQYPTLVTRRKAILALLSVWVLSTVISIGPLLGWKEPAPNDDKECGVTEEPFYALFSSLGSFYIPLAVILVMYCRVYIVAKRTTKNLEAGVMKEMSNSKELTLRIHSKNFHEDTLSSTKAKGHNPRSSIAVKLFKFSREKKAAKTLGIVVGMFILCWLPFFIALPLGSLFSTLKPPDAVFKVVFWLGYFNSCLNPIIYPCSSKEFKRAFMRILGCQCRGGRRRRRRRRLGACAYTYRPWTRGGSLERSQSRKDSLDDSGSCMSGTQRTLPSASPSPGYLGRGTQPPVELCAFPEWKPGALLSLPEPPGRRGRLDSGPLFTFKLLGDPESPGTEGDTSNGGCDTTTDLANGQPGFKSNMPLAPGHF
T2 sequence (P23944 whole entry): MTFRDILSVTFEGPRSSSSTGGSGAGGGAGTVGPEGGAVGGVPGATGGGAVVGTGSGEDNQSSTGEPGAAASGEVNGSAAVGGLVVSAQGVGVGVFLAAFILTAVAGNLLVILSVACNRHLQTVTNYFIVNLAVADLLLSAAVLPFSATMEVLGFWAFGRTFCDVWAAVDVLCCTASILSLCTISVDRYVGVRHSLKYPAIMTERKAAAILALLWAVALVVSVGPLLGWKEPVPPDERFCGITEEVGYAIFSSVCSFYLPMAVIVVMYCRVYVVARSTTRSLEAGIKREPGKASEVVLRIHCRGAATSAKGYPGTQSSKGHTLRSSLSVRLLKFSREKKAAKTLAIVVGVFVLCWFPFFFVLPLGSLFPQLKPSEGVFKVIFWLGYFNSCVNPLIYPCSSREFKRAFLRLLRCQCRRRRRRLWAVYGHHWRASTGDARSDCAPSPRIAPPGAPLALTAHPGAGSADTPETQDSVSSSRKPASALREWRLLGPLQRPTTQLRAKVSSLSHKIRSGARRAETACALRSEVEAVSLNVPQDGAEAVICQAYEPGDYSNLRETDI
T2 sequence (P43140 whole entry): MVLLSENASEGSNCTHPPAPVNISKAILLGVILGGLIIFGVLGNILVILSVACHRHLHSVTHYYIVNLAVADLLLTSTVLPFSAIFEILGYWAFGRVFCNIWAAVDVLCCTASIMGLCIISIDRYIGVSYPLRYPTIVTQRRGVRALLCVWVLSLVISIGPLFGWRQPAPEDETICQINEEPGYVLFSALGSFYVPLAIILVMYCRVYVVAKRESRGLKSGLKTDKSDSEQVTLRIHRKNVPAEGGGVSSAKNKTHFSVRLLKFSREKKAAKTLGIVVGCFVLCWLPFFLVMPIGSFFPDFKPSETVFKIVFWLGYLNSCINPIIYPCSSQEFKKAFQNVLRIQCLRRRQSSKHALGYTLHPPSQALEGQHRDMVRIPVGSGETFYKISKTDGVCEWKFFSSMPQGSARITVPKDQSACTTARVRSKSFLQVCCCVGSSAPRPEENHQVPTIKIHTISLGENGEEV

[3] = biological target: T3, 5-hydroxytryptamine receptor 2C (Rattus norvegicus, UniProt P08909); assay: Binding affinity against 5-hydroxytryptamine 2C receptor in rat choroid plexus using [3H]N-methyl-mesulergine
T3 sequence (P08909 whole entry): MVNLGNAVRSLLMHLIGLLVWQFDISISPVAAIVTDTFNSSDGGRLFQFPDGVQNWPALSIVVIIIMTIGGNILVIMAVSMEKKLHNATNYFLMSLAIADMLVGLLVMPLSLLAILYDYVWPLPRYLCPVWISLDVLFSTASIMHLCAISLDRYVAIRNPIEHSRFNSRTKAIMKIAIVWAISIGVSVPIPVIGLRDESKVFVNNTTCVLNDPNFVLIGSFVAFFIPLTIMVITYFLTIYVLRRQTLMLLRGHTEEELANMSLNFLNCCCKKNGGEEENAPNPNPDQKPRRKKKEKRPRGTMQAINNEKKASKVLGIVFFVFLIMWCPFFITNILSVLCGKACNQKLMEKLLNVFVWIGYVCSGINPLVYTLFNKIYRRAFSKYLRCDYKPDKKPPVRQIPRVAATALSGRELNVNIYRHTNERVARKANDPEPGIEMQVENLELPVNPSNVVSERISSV

[4] = biological target: D(2) dopamine receptor (Rattus norvegicus, UniProt P61169); assay: Binding affinity against D2 receptor in rat striatum using [3H]raclopride; format: tissue-based
[5] = biological target: 5-hydroxytryptamine receptor 2A (Rattus norvegicus, UniProt P14842); assay: Binding affinity for 5-hydroxytryptamine 2A receptor in rat cortex using [3H]ketanserin; format: tissue-based
[6] = tested on: Mus musculus; assay: 5-HT2 antagonist activity was assessed by the ability of compound to antagonise 5-HTP induced head twitches at 128 mg/Kg administered perorally in mice; format: functional; details: po
[7] = tested on: Mus musculus; assay: 5-HT2 antagonist activity was assessed by the ability of compound to antagonise mescaline induced scratching at 32 mg/Kg administered perorally in mice; format: functional; details: po
[8] = tested on: Mus musculus; assay: 5-HT2 antagonist activity was assessed by the ability of compound to antagonise mescaline induced scratching at 8 mg/Kg administered perorally in mice; format: functional; details: po
[9] = tested on: Mus musculus; assay: 5-HT2 antagonist activity was assessed by the ability of compound to antagonise 5-HTP induced head twitches at 45 mg/Kg administered perorally in mice; format: functional; details: po
[10] = tested on: Mus musculus; assay: 5-HT2 antagonist activity was assessed by the ability of compound to antagonise 5-HTP induced head twitches at 4 mg/Kg administered intraperitoneally in mice; Inactive; format: functional, organism-based
[11] = tested on: Mus musculus; assay: 5-HT2 antagonist activity was assessed by the ability of compound to antagonise mescaline induced scratching at 16 mg/Kg administered intraperitoneally in mice; Inactive; format: functional, organism-based
[12] = tested on: Mus musculus; assay: Compound was tested for sedative activity in mice at the dose of 4 mg/kg perorally; active; format: functional, organism-based; design: dose 4 mg/kg

Chain of 5-hydroxytryptamine receptor 2A (P14842 whole entry): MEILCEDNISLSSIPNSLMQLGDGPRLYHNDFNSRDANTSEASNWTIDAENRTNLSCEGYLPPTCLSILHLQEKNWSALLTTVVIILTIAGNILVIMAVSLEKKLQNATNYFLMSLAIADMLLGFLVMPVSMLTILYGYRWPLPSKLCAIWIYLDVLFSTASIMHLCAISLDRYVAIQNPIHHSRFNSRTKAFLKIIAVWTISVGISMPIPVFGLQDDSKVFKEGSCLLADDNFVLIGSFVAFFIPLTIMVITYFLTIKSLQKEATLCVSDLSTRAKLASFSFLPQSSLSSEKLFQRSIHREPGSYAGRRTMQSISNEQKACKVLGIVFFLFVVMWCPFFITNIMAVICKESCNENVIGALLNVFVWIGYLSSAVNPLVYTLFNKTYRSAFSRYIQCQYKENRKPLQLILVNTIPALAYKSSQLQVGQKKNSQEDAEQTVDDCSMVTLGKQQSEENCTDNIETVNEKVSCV
Chain of D(2) dopamine receptor (P61169 whole entry): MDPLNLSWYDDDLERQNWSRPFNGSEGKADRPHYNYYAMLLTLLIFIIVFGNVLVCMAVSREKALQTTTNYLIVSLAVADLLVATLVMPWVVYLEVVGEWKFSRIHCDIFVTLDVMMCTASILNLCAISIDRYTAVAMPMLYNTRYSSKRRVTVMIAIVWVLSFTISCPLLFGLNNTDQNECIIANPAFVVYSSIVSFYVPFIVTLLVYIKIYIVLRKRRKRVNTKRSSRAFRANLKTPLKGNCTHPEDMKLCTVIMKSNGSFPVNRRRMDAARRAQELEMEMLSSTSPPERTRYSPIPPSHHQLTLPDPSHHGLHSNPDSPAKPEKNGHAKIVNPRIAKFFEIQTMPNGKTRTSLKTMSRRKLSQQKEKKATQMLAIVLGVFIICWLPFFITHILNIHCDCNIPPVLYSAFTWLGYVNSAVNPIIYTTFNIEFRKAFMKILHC

Compound | Ki [1] | Ki [2] | Ki [3] | Ki [4] | Ki [5] | inhibition in vivo at 128 mg/kg [6] | inhibition in vivo at 32 mg/kg [7] | inhibition in vivo at 8 mg/kg [8] | inhibition in vivo at 45 mg/kg [9] | Activity [10] | Activity [11] | Activity [12]
O=C(c1ccc(F)cc1)C1CCN(CCn2c(=O)sc3cc(CCCCN4CCN(c5cccc(C(F)(F)F)c5)CC4)ccc32)CC1 | 70 nM | 1000 nM | > 10000 nM | 30 nM | 50 nM |  |  |  |  |  |  | 
COc1ccccc1N1CCN(CCCCc2ccc3c(c2)sc(=O)n3CCN2CCC(C(=O)c3ccc(F)cc3)CC2)CC1 | 7 nM | 5 nM | 240 nM | 1.2 nM | 2 nM | 90% | 70% | 86% | 50% |  |  | 
O=C(c1ccc(F)cc1)C1CCN(CCn2c(=O)sc3cc(CCCCN4CCOCC4)ccc32)CC1 | 700 nM | 40 nM | 20 nM | 100 nM | 0.6 nM |  |  |  |  | inactive | inactive | Active
COc1ccccc1N1CCN(CCc2ccc3c(c2)sc(=O)n3CCN2CCC(C(=O)c3ccc(F)cc3)CC2)CC1 | 6000 nM | 1 nM | 50 nM | 5 nM | 20 nM |  |  |  |  |  |  | 
COc1ccccc1N1CCN(CCCCc2ccc3c(c2)sc(=O)n3CCN2CCC(=C(c3ccc(F)cc3)c3ccc(F)cc3)CC2)CC1 | 5 nM | 5 nM | 110 nM | 5 nM | 7 nM |  |  |  |  |  |  | 
COc1ccccc1N1CCN(CCCCc2ccc3c(c2)oc(=O)n3CCN2CCC(C(=O)c3ccc(F)cc3)CC2)CC1 | 2 nM |  | 75 nM | 0.5 nM | 16 nM |  |  |  |  |  |  | 
COc1ccccc1N1CCN(CCCc2ccc3c(c2)sc(=O)n3CCN2CCC(C(=O)c3ccc(F)cc3)CC2)CC1 | 3 nM |  | 70 nM | 2 nM | 2 nM |  |  |  |  |  |  | 
COc1ccccc1N1CCN(CCCCc2ccc3c(c2)OCC(=O)N3CCN2CCC(C(=O)c3ccc(F)cc3)CC2)CC1 | 18 nM | 2 nM | 30 nM | 0.06 nM | 14 nM |  |  |  |  |  |  | 
COc1ccccc1N1CCN(CCCCc2ccc3c(c2)oc(=O)n3CCN2CCC(=C(c3ccc(F)cc3)c3ccc(F)cc3)CC2)CC1 | 98 nM | 5 nM | 460 nM | 3 nM | 335 nM |  |  |  |  |  |  | 
COc1ccccc1N1CCN(CCCCc2ccc3c(c2)OCC(=O)N3CCN2CCC(=C(c3ccc(F)cc3)c3ccc(F)cc3)CC2)CC1 | 49 nM | 13 nM | 250 nM | 1.4 nM | 120 nM |  |  |  |  |  |  | 
